Test results reported in patent publication US20240199644A1, “Fused Ring Derivatives Useful as KRAS G12D Inhibitors” (JACOBIO PHARMACEUTICALS CO., LTD., priority 2021, published 2024).

Experiments:
[1] = target: GDP-loaded HIS-KRAS(G12D, aa 1-169) (Homo sapiens (Human), UniProt P01116, G12D); assay: SOS1 catalyzed nucleotide exchange assay; type: biochemical; details: TR-FRET; 1.5 nM GDP-loaded HIS-KRAS(G12D), 0.5 μM SOS1 ExD, 4 hours at 25° C.
Description: GDP-loaded HIS-KRAS(G12D, aa 1-169) was pre-incubated with a compound in the presence of 10 nM GDP in a 384-well plate (Greiner) for 15 min, then purified SOS1 ExD(Flag tag, aa 564-1049), BODIPY™ FL GTP (Invitrogen) and MAb(monoclonal antibody) Anti 6HIS-Tb cryptate Gold (Cisbio) were added to the assay wells (Final concentration: 1.5 nM GDP-loaded HIS-KRAS(G12D), 5 nM GDP, 0.5 μM SOS1 ExD, 80 nM BODIPY™ FL GTP, 52.5 ng/mL MAb Anti 6HIS-Tb cryptate Gold) and incubated for 4 hours at 25° C. Wells containing same percent of DMSO served as vehicle control, and wells without KRAS served as low control. TR-FRET signals were read on Tecan Spark multimode microplate reader. The parameters were F486: Excitation 340 nm, Emission 486 nm, Lag time 100 μs, Integration time 200 μs; F515: Excitation 340 nm, Emission 515 nm, Lag time 100 μs, Integration time 200 μs. TR-FRET ratios for each individual wells were calculated by equation: TR-FRET ratio=(Signal F515/Signal F486)*10000. The percent of activation of compounds treated wells were normalizedbetween vehicle control and low control. Then the data were analyzed using a 4-parameter logistic model to calculate ICso values.

[2] = target: GppNp-loaded HIS-KRAS(G12D, aa 1-169) / cRAF RBD (Homo sapiens (Human), UniProt P01116, G12D); assay: GTP-KRAS and cRAF interaction assay; type: biochemical; details: HTRF; 2.0 nM GppNp-loaded HIS-KRAS(G12D), 35 nM cRAF RBD, 100 μM GTP, 2 hours at 25° C.
Chain of GppNp-loaded HIS-KRAS(G12D, aa 1-169) / cRAF RBD (P01116 other isoform, or with tags, fused parts or gaps G12D): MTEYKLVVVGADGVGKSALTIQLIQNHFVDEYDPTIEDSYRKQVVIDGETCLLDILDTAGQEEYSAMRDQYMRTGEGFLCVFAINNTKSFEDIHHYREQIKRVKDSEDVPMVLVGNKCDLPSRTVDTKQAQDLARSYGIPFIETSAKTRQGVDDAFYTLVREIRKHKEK
Description: GppNp-loaded HIS-KRAS(G12D, aa 1-169) was pre-incubated with a compound in the presence of 200 μM GTP in a 384-well plate (Greiner) for 15 min, then cRAF RBD(GST tag, aa 50-132, CreativeBioMart), MAb Anti GST-d2 (Cisbio) and MAb Anti 6HIS-Tb cryptate Gold (Cisbio) were added to the assay wells (Final concentration: 2.0 nM GppNp-loaded HIS-KRAS(G12D), 100 μM GTP, 35 nM cRAF RBD, 1 μg/mL MAb Anti GST-d2, 52.5 ng/mL MAb Anti 6HIS-Tb cryptate Gold) and incubated for 2 hours at 25° C. Wells containing same percent of DMSO served as vehicle control, and wells without KRAS served as low control. HTRF signals were read on Tecan Spark multimode microplate reader and HTRF ratios were calculated under manufacturer's instructions. The percent of activation of compounds treated wells were normalized between vehicle control and low control. Then the data were analyzed using a 4-parameter logistic model to calculate IC50 values.

Chain of GDP-loaded HIS-KRAS(G12D, aa 1-169) (P01116 other isoform, or with tags, fused parts or gaps G12D): as above

With `C#Cc1c(F)ccc2cc(O)cc(-c3c(Cl)c4c5c(nc(OC[C@@]67CCCN6C[C@H](F)C7)nc5c3F)N3C[C@H]5CC[C@H](N5)[C@H]3CO4)c12` (atropisomer, axis not shown) [Compound 12] the IC50 [1] was 35.8 nM and the IC50 [2] was 154 nM.
For `C#Cc1c(F)ccc2cc(O)cc(-c3c(Cl)c4c5c(nc(OC[C@@]67CCCN6C[C@H](F)C7)nc5c3F)N3C[C@H]5CC[C@H](N5)[C@H]3CO4)c12` (atropisomer, axis not shown) [Compound 13], the IC50 [1] was 0.691 nM and the IC50 [2] was 4.8 nM.
`CN(C)CC1(COc2nc3c4c(c(Cl)c(-c5cc(O)cc6ccccc56)cc4n2)OC[C@@H]2CNCCN32)CC1` [Compound 1] showed an IC50 [1] of 3860 nM and an IC50 [2] of 31400 nM.
Work on `CN(C)CC1(COc2nc3c4c(c(Cl)c(-c5cc(O)cc6ccccc56)cc4n2)OC[C@H]2CNCCN32)CC1` [Compound 2] yielded an IC50 [1] of 880 nM and an IC50 [2] of 23300 nM.
`Oc1cc(-c2cc3nc(OC[C@@]45CCCN4C[C@H](F)C5)nc4c3c(c2Cl)OC[C@H]2CNCCN42)c2ccccc2c1` [Compound 3] gave an IC50 [1] of 294 nM and an IC50 [2] of 11600 nM.
In the case of `C#Cc1cccc2cc(O)cc(-c3cc4c5c(nc(OCC6(CN7CCOCC7)CC6)nc5c3F)N3C[C@H]5CC[C@H](N5)[C@@H]3CO4)c12` [Compound 4], the IC50 [1] is reported as 2.5 nM and the IC50 [2] is reported as 378 nM.
`C#Cc1cccc2cc(O)cc(-c3cc4c5c(nc(OCC6(CN7CCOCC7)CC6)nc5c3F)N3C[C@H]5CC[C@H](N5)[C@H]3CO4)c12` [Compound 5] gave an IC50 [1] of 1.16 nM and an IC50 [2] of 20.5 nM.
With `C#Cc1c(F)ccc2cc(O)cc(-c3nc4c5c(nc(OC[C@@]67CCCN6C[C@H](F)C7)nc5c3F)N3C[C@H]5CC[C@H](N5)[C@H]3CO4)c12` [Compound 6] the IC50 [1] was 0.23 nM and the IC50 [2] was 3.9 nM.
`C#Cc1c(F)ccc2cc(O)cc(-c3nc4c5c(nc(OCC6(CN7CCOCC7)CC6)nc5c3F)N3C[C@H]5CC[C@H](N5)[C@H]3CO4)c12` [Compound 7] was tested, and the IC50 [1] was 0.659 nM and the IC50 [2] was 9.8 nM.
Work on `C#Cc1c(F)ccc2cc(O)cc(-c3nc4c5c(nc(OC[C@@]67CCCN6C[C@H](F)C7)nc5c3F)N3C[C@@H]5CC[C@@H](N5)[C@@H]3CO4)c12` [Compound 8] yielded an IC50 [1] of 32.6 nM and an IC50 [2] of 280 nM.
`C#Cc1c(F)ccc2cc(O)cc(-c3nc4c5c(nc(OC[C@@]67CCCN6C[C@H](F)C7)nc5c3F)N3C[C@@H]5CC[C@@H](N5)[C@H]3CO4)c12` [Compound 9] was tested, and the IC50 [1] was 81 nM and the IC50 [2] was 2240 nM.
For `C#Cc1c(F)ccc2cc(O)cc(-c3cc4c5c(nc(OC[C@@]67CCCN6C[C@H](F)C7)nc5c3F)N3C[C@H]5CC[C@H](N5)[C@H]3CO4)c12` [Compound 10], the IC50 [1] was 0.452 nM and the IC50 [2] was 5.4 nM.
`C#Cc1cccc2cc(O)cc(-c3cc4nc(OC[C@@]56CCCN5C[C@H](F)C6)nc5c4c(c3Cl)OC[C@@H]3[C@@H]4CC[C@H](CN53)N4)c12` [Compound 11] was tested, and the IC50 [1] was 7.24 nM and the IC50 [2] was 184 nM.
With `C#Cc1c(F)ccc2cc(O)cc(-c3cc4c5c(nc(OCC6(CN7CCOCC7)CC6)nc5c3F)N3C[C@H]5CC[C@H](N5)[C@H]3CO4)c12` [Compound 14] the IC50 [1] was 1.15 nM and the IC50 [2] was 9.2 nM.
Work on `C#Cc1cccc2cc(O)cc(-c3cc4c5c(nc(OCC6(CN7CCOCC7)CC6)nc5c3F)N3[C@@H]5CN[C@@H](C5)[C@@H]3CO4)c12` [Compound 15] yielded an IC50 [1] of 11 nM and an IC50 [2] of 251 nM.
In the case of `C#Cc1cccc2cc(O)cc(-c3cc4c5c(nc(OCC6(CN7CCOCC7)CC6)nc5c3F)N3[C@H]5CN[C@H](C5)[C@@H]3CO4)c12` [Compound 16], the IC50 [1] is reported as 86.1 nM and the IC50 [2] is reported as 660 nM.
